Literature values in patent publication US20100008998A1, “SUBMICRON NANOPARTICLE OF POORLY WATER SOLUBLE CAMPTOTHECIN DERIVATIVES AND PROCESS FOR PREPARATION THEREOF” (SAMYANG CORPORATION, priority 2006, published 2010).
Read-outs that look alike come from different tables or passages of the source.

Key:
[1] = in the human body
[2] = target: T1, topoisomerase I (Homo sapiens, UniProt P11387)
T1 sequence (P11387 1-765): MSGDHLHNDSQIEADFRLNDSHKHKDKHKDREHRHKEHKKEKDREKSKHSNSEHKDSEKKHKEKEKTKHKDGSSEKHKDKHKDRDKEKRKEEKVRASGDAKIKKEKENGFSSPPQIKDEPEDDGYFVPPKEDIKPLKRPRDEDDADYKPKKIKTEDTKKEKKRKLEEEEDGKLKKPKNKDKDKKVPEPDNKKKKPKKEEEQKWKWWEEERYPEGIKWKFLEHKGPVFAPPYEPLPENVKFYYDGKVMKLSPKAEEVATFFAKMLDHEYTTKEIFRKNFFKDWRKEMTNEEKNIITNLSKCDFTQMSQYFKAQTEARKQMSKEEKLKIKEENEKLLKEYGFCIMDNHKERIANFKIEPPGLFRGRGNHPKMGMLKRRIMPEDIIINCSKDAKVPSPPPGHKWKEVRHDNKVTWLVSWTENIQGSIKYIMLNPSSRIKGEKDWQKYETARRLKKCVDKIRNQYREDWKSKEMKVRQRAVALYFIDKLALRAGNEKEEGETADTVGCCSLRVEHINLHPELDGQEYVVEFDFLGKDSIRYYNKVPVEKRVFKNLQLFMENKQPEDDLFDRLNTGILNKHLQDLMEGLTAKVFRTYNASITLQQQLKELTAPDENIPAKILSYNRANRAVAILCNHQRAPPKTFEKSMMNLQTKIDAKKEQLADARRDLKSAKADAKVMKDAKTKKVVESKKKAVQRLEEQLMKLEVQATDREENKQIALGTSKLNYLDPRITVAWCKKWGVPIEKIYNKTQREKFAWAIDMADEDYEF

[3] = not given; remark: listed apart in the source

Structure (SMILES) | conversion rate of CPT-11 into the active SN-38 [1] [%] | better in suppressing the activity of topoisomerase I compared to CPT-11 [2] | better in in vitro cytotoxicity compared to CPT-11 | water solubility [3] [µg/mL] | water solubility ([3]; active lactone form) [µg/mL] | can be dissolved in water in the amounts of ([3]; carboxy anion form) [mg/mL]
CCc1c2c(nc3ccc(OC(=O)N4CCC(N5CCCCC5)CC4)cc13)-c1cc3c(c(=O)n1C2)COC(=O)[C@]3(O)CC [CPT-11] | ≤ 10 | – | – | – | – | –
CCc1c2c(nc3ccc(O)cc13)-c1cc3c(c(=O)n1C2)COC(=O)[C@]3(O)CC [SN-38, 7-Ethyl-10-hydroxycamptothecin] | – | ≥ 1,000 times | ≥ 2,000 times | ≤ 10 | ≤ 10 | ≥ 4
